Laboratory results: paper PMC8512368, “Alpha-Glucosidase Inhibitory Assay-Screened Isolation and Molecular Docking Model from Bauhinia pulla Active Compounds” (Molecules, 2021)
pIC50: −log10 of the molar value. Where two headings read alike, the source gives them in different places.

Molecular target: T1, alpha-glucosidase enzyme from Saccharomyces cerevisiae (EC 3.2.1.20) (Saccharomyces cerevisiae, UniProt P53341)
T1 construct: purchased Sigma-Aldrich
Assay: biochemical
Assay type: biochemical
Settings: for IC50: isolated compounds (Table 2), read-out: IC50 (converted)
Description: Briefly, the enzyme from Saccharomyces cerevisiae (EC 3.2.1.20) and the pNPG substrate were dissolved in 0.1 M phosphate buffer (pH 7), which was enriched by bovine serum albumin and sodium azide. Standards and samples were suspended in 20% (v/v) of DMSO in a water solution. In a 96-well plate, 50 µl of PBS, standards, samples and enzyme solutions were mixed and incubated for 2 min at 37 °C. At last, 50 µl of 4 mM pNPG was added and incubated for 5 min before the kinetic parameter measurement, as described earlier.
The velocity was examined by a linear relationship equation between absorbance and time, Equation (1).
The percent inhibition was determined for the highest velocity as:% Inhibition = (V control − V sample)/(V control) × 100(2)
The IC50 value was calculated by using a calibration curve equation between samples at five different concentrations and inhibition percentages.

T1 sequence (P53341 whole entry): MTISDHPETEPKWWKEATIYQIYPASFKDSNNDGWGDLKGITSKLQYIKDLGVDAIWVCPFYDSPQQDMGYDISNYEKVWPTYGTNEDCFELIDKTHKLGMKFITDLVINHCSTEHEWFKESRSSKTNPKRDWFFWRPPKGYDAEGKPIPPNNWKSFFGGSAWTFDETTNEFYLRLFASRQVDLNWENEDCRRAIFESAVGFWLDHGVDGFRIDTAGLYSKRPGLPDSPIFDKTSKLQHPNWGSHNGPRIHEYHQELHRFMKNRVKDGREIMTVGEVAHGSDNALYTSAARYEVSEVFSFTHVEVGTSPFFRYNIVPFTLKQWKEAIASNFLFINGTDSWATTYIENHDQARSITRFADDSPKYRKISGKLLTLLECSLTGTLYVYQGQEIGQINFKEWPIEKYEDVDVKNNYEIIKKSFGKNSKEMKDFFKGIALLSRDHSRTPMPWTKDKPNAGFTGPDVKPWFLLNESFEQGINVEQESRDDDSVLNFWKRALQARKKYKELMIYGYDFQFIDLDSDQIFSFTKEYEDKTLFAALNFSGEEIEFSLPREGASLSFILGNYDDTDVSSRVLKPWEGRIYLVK

Row | SMILES | IC50 [µM] | pIC50 | inhibitory activity drop compared with quercetin (sugar moiety added) (ratio of IC50 values) | IC50 fold higher compared to luteolin (ratio of IC50 values) [fold]
1 | O=c1cc(-c2ccc(O)c(O)c2)oc2cc(O)cc(O)c12 [Luteolin, luteolin] | 573 | – | – | –
2 | C[C@@H]1O[C@@H](Oc2c(-c3ccc(O)c(O)c3)oc3cc(O)cc(O)c3c2=O)[C@H](O)[C@H](O)[C@H]1O [Quercitrin, quercitrin] | – | 3.96 | roughly 10 fold | –
3 | O=c1cc(-c2ccc(O)c(O)c2)oc2cc(O)ccc12 [5-deoxyluteolin] | 2130 | – | – | 3.5

The next lines start with results.

Row | IC50 [µM] | SMILES | pIC50 | inhibitory activity drop compared with quercetin (sugar moiety added) (ratio of IC50 values) | IC50 fold higher compared to luteolin (ratio of IC50 values) [fold]
4 | 4450 | COc1ccc(/C=C/C(=O)c2ccc(O)cc2O)cc1O [3,2’ ,4’-trihydroxy-4-methoxychalcone, 3,2’,4’-trihydroxy-4-methoxychalcone] | – | – | –
5 | 814 | COc1ccc(/C=C/C(=O)c2ccc(O)cc2O)cc1 [4-methyl ether isoliquiritigenin] | – | – | –
